Here are results for two compounds from patent US20160278381A1, “Agricultural And Horticultural Fungicidal Composition And Method Of Use Of the Same” (NIHON NOHYAKU CO., LTD., priority 2015, published 2016).

This test concerns Pythium aphanidermatum. Put plainly: Test Example 1: spray on lawn grass sods, inoculation with Pythium aphanidermatum, control value from lesion diameter. The test is classed as in vivo. Particulars: for Control Value (%): alone, lesion diameter seven days after inoculation; for efficacy against Pythium aphanidermatum: treated each alone. The source says: With a hand spray, chemical agents (no spreader added) prepared from commercial formulations at the predetermined concentrations were sprayed with the volume of 0.25 l/m^2. Seven days after the final spraying, with a hole cutter (10 cm in diameter), two sods were cut out, transferred into a greenhouse and inoculated with Pythium aphanidermatum.
For the test plot for the present invention, chemical solutions of tiadinil and chlorothalonil were each prepared, and each of the chemical solutions were blended for use as compositions and combinations.
Seven days after the inoculation, lesion diameters in each treated plots and the untreated plot were measured for calculating the control values for each treated plots using an equation below.
In general, in a case, where two active ingredients given are mixed and treated, if the actual efficacy measured is larger than the Colby's expectation value (E) calculated using the Colby's equation below, wherein value (E) is interpreted to denote an expected control value (%) which is predicted by the combination of the two active ingredients, the function achieved by the combination of the two active ingredients is determined to be synergistic.
(wherein X represents the preventive value (%) of one of the active ingredients and Y represents the preventive value (%) of the other active ingredient.)

With `N#Cc1c(Cl)c(Cl)c(Cl)c(C#N)c1Cl` [Chlorothalonil, chlorothalonil], the “efficacy against Pythium aphanidermatum” value is “did not show sufficient efficacy”. Besides, for the setting “dose 1.1 fl oz/1,000 ft^2”, the “Control Value (%)” value is 22%.

`Cc1ccc(NC(=O)c2snnc2C)cc1Cl` [Tiadinil, tiadinil]: the “efficacy against Pythium aphanidermatum” value was “did not show sufficient efficacy”. For the same compound, the “Control Value (%)” value (dose 0.15625 fl oz/1,000 ft^2) turned out to be 11%. Also, where the note is “dose 0.3125 fl oz/1,000 ft^2”, the “Control Value (%)” value amounted to 11%. Moreover, under “dose 0.625 fl oz/1,000 ft^2”, the “Control Value (%)” value is on record as 22%. The “Control Value (%)” value (dose 1.25 fl oz/1,000 ft^2) is 22%.
